Measurements published in US20090076029A1 (Palatin Technologies, Inc., priority 2007, published 2009).
Like-named read-outs stand apart in the source and are kept apart here. Square brackets hold non-standard residues; d marks the D form. * marks the point of attachment. dPhe(4-Cl) = N[C@H](Cc1ccc(Cl)cc1)C(=O)O; Heptanoyl = CCCCCCC(=O)*; Bn = c1ccc(C*)cc1

Legend:
hMC3-R = molecular target: T1, hMC3-R; test: Competitive inhibition assay using [I125]-NDP-α-MSH, hMC3-R membranes; assay type: binding, human; details: read-out: Ki (nM) (NDP-α-MSH) MC3-R
T1 construct: expressed in transfected cells; host or cells: HEK-293
Experimental: (§1) Competitive inhibition assay using [1125]-NDP-α-MSH. A competitive inhibition binding assay was conducted using membranes prepared from HEK-293 cells transfected to express hMC3-R, hMC4-R or hMC5-R, and from B-16 mouse melanoma cells (containing MC1-R) using 0.2 to 0.4 nM [I^125]-NDP-α-MSH (New England Nuclear) in 50 mM HEPES buffer containing 1 mM MgCl2, 2 mM CaCl2, and 5 mM KCl, at pH 7.2. In certain experiments, HEK-293 cells transfected to express hMC1-R were also employed. The assay tube also contained a chosen concentration of the test compound of this invention, typically a 1 μM concentration, for determining inhibition of the binding of [^1125]-NDP-α-MSH to its receptor. Non-specific binding was measured by inhibition of binding of [I^125]-NDP-α-MSH in the assay with the presence of 1 μM α-MSH.
(§2) The assay mixture was incubated for 90 minutes at room temperature, then filtered and the membranes washed three times with ice cold buffer. The filter was dried and counted in a gamma counter for remaining radioactivity bound to the membranes. 100% specific binding was defined as the difference in radioactivity (cpm) bound to cell membranes in the absence and presence of 1 μM α-MSH. The cpm obtained in presence of test compounds were normalized with respect to 100% specific binding to determine the percent inhibition of [125]-NDP-α-MSH binding. Each assay was conducted in triplicate and the actual mean values are described, with results less than 0% reported as 0%.

hMC4-R [1] = molecular target: T2, hMC4-R; test: Competitive inhibition assay using [I125]-NDP-α-MSH, hMC4-R membranes; assay type: binding, human; details: for attenuation of binding of α-MSH and AgRP to MC4-R: both ligands (NDP-α-MSH and AgRP), summary
T2 construct: expressed in transfected cells; host or cells: HEK-293
Experimental: as §1, §2

hMC5-R = molecular target: T3, hMC5-R; test: Competitive inhibition assay using [I125]-NDP-α-MSH, hMC5-R membranes; assay type: binding, human; details: read-out: Ki (nM) (NDP-α-MSH) MC5-R
T3 construct: expressed in transfected cells; host or cells: HEK-293
Experimental: as §1, §2

hMC4-R [2] = test system: T2, hMC4-R; assay type: binding, human; details: for Inhibition at 1 μM (AgRP) MC4-R: 1 μM compound
Experimental: Competitive binding assay using [I^125]-AgRP (83-132). Competitive binding studies using [I^125]-AgRP (83-132) were carried out on membranes isolated from cells expressing hMC4-R. The assay was performed in 96 well GF/B Millipore multiscreen filtration plates (MAFB NOB10) pre-coated with 0.5% bovine serum albumin (Fraction V). The assay mixture contained 25 mM HEPES buffer (pH 7.5) with 100 mM NaCl, 2 mM CaCl2, 2 mM MgCl2, 0.3 mM 1,10-phenanthroline, 0.5% bovine serum albumin, cell membranes, radioligand [I^125]-AgRP (83-132) (NEN), and increasing concentrations of compounds in a total volume of 200 μL. Binding was measured at radioligand concentrations of 0.2 nM. After incubating for 1 hour at 37° C., the reaction mixture was filtered and washed with an assay buffer containing 500 mM NaCl. The dried discs were punched out from the plate and counted on a gamma counter. Care was taken to limit the specific binding of the ligand to an amount not exceeding 10% of the counts added to the reaction mixture. Data were analyzed using the Prism Graph-Pad curve fitting software.

hMC4-R [3] = test system: T2, hMC4-R; test: cAMP functional assay in HEK-293 cells expressing MC4-R (agonist, neutral antagonist/Schild); assay type: cell-based, human; details: for intrinsic activity at MC4-R: NDP-α-MSH maximal stimulation = 1.0
Experimental: General method for EC50 determination in functional activity assay. Functional evaluation of compounds at melanocortin receptors was performed by measuring the accumulation of intracellular cAMP in HEK-293 cells expressing hMC3-R, hMC4-R or hMC5-R, and in B-16 mouse melanoma cells expressing MC1-R. Cells suspended in Earle's Balanced Salt Solution containing 10 mM HEPES (pH 7.5), 5 mM MgCl2, 1 mM glutamine, 0.1% albumin and 0.6 mM 3-isobutyl-1-methyl-xanthine, a phosphodiesterase inhibitor, were plated in 96 well plates at a density of 0.5×10^5 cells per well. Cells were incubated with the test compounds in the presence or absence of α-MSH for 1 hour at 37° C. cAMP levels in the cell lysates were measured using an EIA kit (Amersham). Data analysis and EC50 values were determined using nonlinear regression analysis with Prism Graph-Pad software.
Functional status. The agonist/antagonist status with respect to MC1-R, MC-3R, MC4-R and MC5-R of certain compounds of the invention was determined.
Assay for agonist. Evaluation of the molecules to elicit a functional response in HEK-293 cells expressing MC4-R was accomplished by measuring the accumulation of intracellular cAMP following treatment. Confluent HEK-293 cells expressing MC4-R were detached by enzyme free cell suspension buffer. Cells were suspended in Earle's Balanced Salt Solution containing 10 mM HEPES (pH 7.5), 1 mM MgCl2, 1 mM glutamine, 0.5% albumin and 0.3 mM 3-isobutyl-1-methyl-xanthine (IBMX), a phosphodiesterase inhibitor. The cells were plated in 96 well plates at a density of 0.5×10^5 cells per well and pre-incubated for 30 minutes. The cells were then challenged with the test compounds dissolved in DMSO at a concentration range of 0.05-5000 nM in a total assay volume of 200 μL for 1 hour at 37° C. The concentration of DMSO was always held at 1% in the assay mixture. NDP-α-MSH was used as the reference agonist. At the end of the incubation period the cells were disrupted by the addition of 50 μL of lysis buffer from a cAMP EIA kit (Amersham). Complete rupture of the cells was obtained by pipetting the cells multiple times. cAMP levels in the cell lysates were measured after appropriate dilution using the EIA kit (Amersham) method. Data analysis and EC50 values were determined by using nonlinear regression analysis with Prism Graph-Pad software. […] FIG. 1 illustrates typical results, showing the stimulation of cAMP using the compound of Example 11 in HEK-293/MC4-R cells with comparison to NDP-α-MSH.
Assay for Neutral Antagonist. Compounds with a high affinity for binding to MC4-R membranes but with less potency in terms of cAMP accumulation (EC50>1000 nM) and low response ratio (<0.1) were analyzed for their ability to antagonize the stimulatory effect of the agonist NDP-α-MSH. These studies were carried out in HEK-293 cells expressing MC4-R. Cells were incubated with the compounds in the presence of the agonist NDP-α-MSH and the extent of antagonism was measured by the decrease in intracellular cAMP concentrations. Screening the compounds for antagonist activity was performed at a single concentration of NDP-α-MSH (1.0 nM) over a compound concentration range of 0.5-5000 nM.
Experimental details were similar to the analysis for agonistic activity described above. Briefly, cells were pre-incubated for 30 minutes with the test compounds at concentrations between 0.5 nM and 5000 nM. The cells were then stimulated with NDP-α-MSH at a concentration of 1 nM for 1 hour. For Schild's analysis, the interactions were studied using at least 3 concentrations of the compounds, separated by a log unit, over a full range of the agonist (0.005-5000 nM). cAMP levels were measured in the cell lysates after appropriate dilution. Nonlinear regression analysis with Prism Graph-Pad software was used for Schild analysis and to obtain EC50 values. pA2 values were derived from the Schild plot of the data.

MC1-R = molecular target: T4, MC1-R; test: Competitive inhibition assay using [I125]-NDP-α-MSH, MC1-R membranes; assay type: binding, mouse; details: for Inhibition at 1 μM (NDP-α-MSH) MC1-R: 1 μM compound
T4 construct: other: 1 μM compound
Experimental: as §1, §2

[4] = MC4-R membranes, Table 1, read-out: Ki (nM) I125-NPD-α-MSH
[5] = read-out: Ki (nM) (NDP-α-MSH) MC4-R
[6] = MC4-R membranes, Table 1, read-out: Ki (nM) I125-AgRP
[7] = cAMP assay, read-out: EC50 (nM) at MC4-R

Compound | Ki (hMC3-R) | Ki (hMC4-R [1]; [4]) | attenuation of binding of α-MSH and AgRP to MC4-R (hMC4-R [1]) | Ki (hMC4-R [1]; [5]) | Ki (hMC5-R) | Inhibition at 1 μM (AgRP) MC4-R (hMC4-R [2]) | Ki (hMC4-R [2]; [6]) | Ki (hMC4-R [2]; read-out: Ki (nM) (AgRP) MC4-R) | functional status (pAg, Ag, Antag, Inactive) (hMC4-R [3]; MC4-R, Table 1) | EC50 (hMC4-R [3]; MC4-R, Table 1, read-out: EC50) | intrinsic activity at MC4-R (hMC4-R [3]) | EC50 (hMC4-R [3]; [7]) | Ki (MC1-R) | Inhibition at 1 μM (NDP-α-MSH) MC1-R (MC1-R) | pA2 (M) (hMC4-R [3]; MC4-R antagonists, Table 1) | pA2 value at MC4-R (hMC4-R [3]; Schild plot vs NDP-α-MSH) | functional status at MC4-R (hMC4-R [3]; cAMP assay, mostly at 1 μM) | EC50 (hMC4-R [3]; MC4-R, Table 1 in μM, read-out: EC50)
7′-amino-heptanoyl-Ser(Bzl)-D-Phe(4-Cl)-Arg-S-(−)-1-(1-naphthyl)ethylamide [Example 17] | 125 nM | 7 nM | attenuate the binding of both α-MSH and AgRP to MC4-R | 7 nM | 313 nM | 100% | 0.6 nM | 0.6 nM | pAg (“pAg” means partial agonist) | 17 nM | 0.3 | 17 nM |  |  |  |  |  | 
N=C(N)NCCC[C@H]1CN(CCc2ccc3ccccc3c2)CCN1C(=O)[C@H](N)Cc1ccc(Cl)cc1Cl [Example 18, N-{3-[(S)-1%-[(R)-2-Amino-3-(2,4-dichloro-phenyl)-propionyl]-4-(2-naphthalen-2-ylethyl)-piperazin-2-yl]-propyl}-guanidine] | 97 nM | 3 nM | attenuate the binding of both α-MSH and AgRP to MC4-R | 3 nM | 259 nM | 100% | 1 nM | 1 nM | pAg (“pAg” means partial agonist) | 22 nM | 0.4 | 22 nM | 1200 nM | 6% |  |  |  | 
N=C(N)NCCC[C@H]1C(=O)N2C(CC[C@@H]2COc2ccc3ccccc3c2)N1C(=O)[C@@H](Cc1ccc(Cl)cc1Cl)NC(=O)[C@@H]1Cc2ccccc2CN1 (stereo partly drawn) [Example 23, (S)-1,2,3,4-Tetrahydro-isoquinoline-3-carboxylic acid {(R)-1-(2,4-dichloro-benzyl)-2-[(2S,5R)-2-(3-guanidino-propyl)-5-(naphthalen-2-yloxymethyl)-3-oxo-hexahydro-pyrrolo[1,2-a]imidazol-1-yl]-2-oxo-ethyl}-amide] | 42 nM | 1 nM |  | 1 nM | 26 nM | 100% | 1.2 nM | 1.2 nM | Antag (“Antag” means antagonist) |  |  |  |  |  | 8.086 | 8.0 | antagonist | 
Heptanoyl-T(Bn)[dPhe(4-Cl)]RW-NH2 [Example 24] | 374 nM | 21 nM | attenuate the binding of both α-MSH and AgRP to MC4-R | 21 nM | 292 nM | 90% | 69 nM | 69 nM | pAg (“pAg” means partial agonist) |  | 0.4 | > 1000 nM |  |  |  |  |  | > 1000 nM
NH2—(CH2)6—C(═O)-Ser(Bzl)-D-Phe(4-Cl)-Arg-Trp-Asp-Phe-NH2 [Example 15] | 76 nM | 5 nM | attenuate the binding of both α-MSH and AgRP to MC4-R | 5 nM | 405 nM | 95% | 0.6 nM | 0.6 nM | pAg (“pAg” means partial agonist) | 283 nM | 0.5 | 238 nM | 242 nM | 38% |  |  |  | 
NH2—(CH2)6—C(═O)-Ser(Bzl)-D-Phe(4-Cl)-Arg-Trp-NH2 [Example 1] | 27 nM |  | attenuate the binding of both α-MSH and AgRP to MC4-R | 1 nM | 208 nM |  |  | 8 nM | pAg (“pAg” means partial agonist) | 296 nM | 0.3 | 296 nM | 351 nM | 33% |  |  |  | 
